Columns and labels:
Homo sapiens [1] = species on record: Homo sapiens; assay: Inhibitory activity against TXB2 generation at 100 uM concentration; type: functional
Homo sapiens [2] = species on record: Homo sapiens; assay: Inhibitory activity against elastase release by human neutrophils; type: functional; set-up: concentration or dose not given beside the values
[3] = molecular target: T1, Phospholipase A2, membrane associated (Homo sapiens) (UniProt P14555); assay: Inhibitory activity against synovial human recombinant phospholipase (hr-PLA2) at 100 uM concentration
T1 sequence (whole entry): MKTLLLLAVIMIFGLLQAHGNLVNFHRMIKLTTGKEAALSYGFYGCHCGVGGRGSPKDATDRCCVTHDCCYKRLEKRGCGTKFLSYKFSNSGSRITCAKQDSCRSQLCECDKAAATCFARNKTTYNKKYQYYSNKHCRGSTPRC

Rattus norvegicus [4] = species on record: Rattus norvegicus; assay: IC50 value was evaluated by measuring the 50% inhibition of microsomal lipid peroxidation induced by CCl4/NADPH.; type: functional
Rattus norvegicus [5] = species on record: Rattus norvegicus; assay: Inhibition of microsomal lipid peroxidation induced by [Fe(2+)]/ascorbate at 100 uM concentration; type: functional
Rattus norvegicus [6] = species on record: Rattus norvegicus; assay: Percent inhibition was evaluated by measuring the inhibition of microsomal lipid peroxidation induced by CCl4/NADPH.p < 0.01; type: functional; conditions: dose or concentration not given here
Rattus norvegicus [7] = species on record: Rattus norvegicus; assay: Percent inhibition was evaluated by measuring the inhibition of microsomal lipid peroxidation induced by [Fe(3+)]-ADP/NADPH at 100 uM concentration; type: functional
Rattus norvegicus [8] = species on record: Rattus norvegicus; assay: Percent inhibition was evaluated by measuring the inhibition of peroxyl scavenging activity at 100 uM concentration; type: functional
Rattus norvegicus [9] = species on record: Rattus norvegicus; assay: IC50 value was evaluated by measuring the 50% inhibition of microsomal lipid peroxidation induced by [Fe(3+)]-ADP/NADPH.; type: functional
Rattus norvegicus [10] = species on record: Rattus norvegicus; assay: Inhibition of microsomal lipid peroxidation induced by [Fe(3+)]-ADP/NADPH at 100 uM concentration; type: functional
Rattus norvegicus [11] = species on record: Rattus norvegicus; assay: Percent inhibition was evaluated by measuring the inhibition of microsomal lipid peroxidation induced by CCl4/NADPH; type: functional; conditions: dose or concentration not given here
[12] = molecular target: T1, Phospholipase A2, membrane associated (Homo sapiens); assay: Inhibitory activity against synovial human recombinant phospholipase (hr-PLA2) at 1 mM concentration
Rattus norvegicus [13] = species on record: Rattus norvegicus; assay: IC50 value was evaluated by measuring the 50% inhibition of peroxyl scavenging activity.; type: functional
Rattus norvegicus [14] = species on record: Rattus norvegicus; assay: (§1) Inhibition of microsomal lipid peroxidation induced by CCl4/NADPH in rat liver; type: functional
Rattus norvegicus [15] = species on record: Rattus norvegicus; assay: Inhibition of microsomal lipid peroxidation induced by [Fe(2+)]/ascorbate in rat liver; type: functional
Rattus norvegicus [16] = species on record: Rattus norvegicus; assay: Inhibition of microsomal lipid peroxidation induced by [Fe(3+)]-ADP/NADPH in rat liver; type: functional
Rattus norvegicus [17] = species on record: Rattus norvegicus; assay: as §1; type: functional; conditions: dose or concentration not given here
Rattus norvegicus [18] = species on record: Rattus norvegicus; assay: Inhibition of microsomal lipid peroxidation induced by [Fe(2+)]/ascorbate at given 100 uM concentration in rat liver; type: functional
Rattus norvegicus [19] = species on record: Rattus norvegicus; assay: Inhibition of microsomal lipid peroxidation induced by [Fe(3+)]-ADP/NADPH at 100 uM concentration in rat liver; type: functional
Rattus norvegicus [20] = species on record: Rattus norvegicus; assay: Inhibition of microsomal lipid peroxidation induced by CCl4/NADPH.; type: functional
Rattus norvegicus [21] = species on record: Rattus norvegicus; assay: Inhibition of microsomal lipid peroxidation induced by [Fe(3+)]-ADP/NADPH.; type: functional
Rattus norvegicus [22] = species on record: Rattus norvegicus; assay: Inhibition of peroxyl scavenging activity at 100 uM concentration; type: functional
Rattus norvegicus [23] = species on record: Rattus norvegicus; assay: Percent inhibition was evaluated by measuring the inhibition of microsomal lipid peroxidation induced by CCl4/NADPH.; type: functional; conditions: dose or concentration not given here
Rattus norvegicus [24] = species on record: Rattus norvegicus; assay: Inhibition of microsomal lipid peroxidation induced by CCl4/NADPH; type: functional; conditions: dose or concentration not given here
Rattus norvegicus [25] = species on record: Rattus norvegicus; assay: Percent inhibition was evaluated by measuring the inhibition of peroxyl scavenging activity; type: functional; conditions: dose or concentration not given here
Rattus norvegicus [26] = species on record: Rattus norvegicus; assay: Inhibition of microsomal lipid peroxidation induced by CCl4/NADPH at 100 uM concentration; type: functional

SMILES	inhibition [3] [%]	Inhibition (Homo sapiens [1]) [%]	Inhibition (Homo sapiens [2]) [%]	inhibition (Rattus norvegicus [5]) [%]	inhibition (Rattus norvegicus [8]) [%]	inhibition (Rattus norvegicus [10]) [%]	also measured
COc1ccc(/C=C/C(=O)c2ccc(OC)c(OC)c2O)cc1OC	55	77.2	87.6	0	40		IC50 (Rattus norvegicus [4]): 68.6 µM; inhibition (Rattus norvegicus [6]): 57.2%; inhibition (Rattus norvegicus [7]): 33.1%
CCN(CC)CCCC(C)Nc1c2ccc(Cl)cc2nc2ccc(OC)cc12 (centres undefined)							inhibition [12]: 48.9%
COc1ccc2c(c1)c(CC(=O)O)c(C)n2C(=O)c1ccc(Cl)cc1 [INDOMETHACIN]		100	31.9				
CCCOC(=O)c1cc(O)c(O)c(O)c1 [PROPYL GALLATE]					100		IC50 (Rattus norvegicus [13]): 33.9 µM; IC50 (Rattus norvegicus [14]): 4.5 µM; IC50 (Rattus norvegicus [15]): 4.9 µM; IC50 (Rattus norvegicus [16]): 8 µM; inhibition (Rattus norvegicus [17]): 100%; inhibition (Rattus norvegicus [18]): 100%; inhibition (Rattus norvegicus [19]): 100%
COc1ccc(/C=C/C(=O)c2ccc(C)c(C)c2O)cc1OC	27.5	28.1	39.6	8.2		51	inhibition (Rattus norvegicus [24]): 55.3%; inhibition (Rattus norvegicus [25]): 28.8%; IC50 (Rattus norvegicus [26]): 95 µM

Now from value to molecule, other results behind:

inhibition [3] [%]	SMILES	Inhibition (Homo sapiens [1]) [%]	Inhibition (Homo sapiens [2]) [%]	inhibition (Rattus norvegicus [5]) [%]	inhibition (Rattus norvegicus [8]) [%]	inhibition (Rattus norvegicus [10]) [%]	also measured
25.7	COc1ccc(-c2cc(=O)c3ccc(C)c(C)c3o2)cc1OC	37.4	9.6	0	37.4	89.6	IC50 (Rattus norvegicus [9]): 29.6 µM; inhibition (Rattus norvegicus [11]): 26.2%
46.2	COc1ccc(-c2cc(=O)c3ccc(OC)c(OC)c3o2)cc1OC	38.6	41.7	0		93.2	IC50 (Rattus norvegicus [20]): 56.6 µM; IC50 (Rattus norvegicus [21]): 62.6 µM; inhibition (Rattus norvegicus [22]): 30%; inhibition (Rattus norvegicus [23]): 58.2%

— ChEMBL document CHEMBL1128476, “Synthesis and pharmacological evaluation of 2'-hydroxychalcones and flavones as inhibitors of inflammatory mediators generation” (J Med Chem, 1995)
